Measurements from the NIST ThermoML archive (doi:10.1016/j.fluid.2004.10.022).

Experiments:
[1] = Liquid; for mass density: 101.33 kPa
[2] = refractive index (Na D-line) (dimensionless); settings: 298.15 K; 101.33 kPa; Liquid; Standard Abbe refractometry

CC(=O)OCC(C)C [2-methylpropyl ethanoate]
[1]
Settings	mass density [kg/m3]	vapor or sublimation pressure [kPa]
293.15 K	866.12	–
307.43 K	–	3.99
315.56 K	–	5.99
322.93 K	–	8.48
328.64 K	–	10.98
335.75 K	–	14.98
341.55 K	–	18.96
342.95 K	–	20
346.88 K	–	23.44
351.45 K	–	27.95
355.75 K	–	32.86
359.66 K	–	37.89
363.22 K	–	42.93
366.39 K	–	47.84
368.76 K	–	51.85
371.61 K	–	57.06
374.55 K	–	62.82
376.93 K	–	67.79
379.15 K	–	72.78
381.03 K	–	77.2
383.63 K	–	83.72
385.84 K	–	89.68
387.69 K	–	94.78
389.16 K	–	98.95
389.9 K	–	100
391.39 K	–	105.57

Settings	refractive index
[2]	1.3876

CC(C)CO [2-methyl-1-propanol]
[1]
Settings	mass density [kg/m3]	vapor or sublimation pressure [kPa]
298.15 K	797.83	–
342.52 K	–	20
381.09 K	–	100

Settings	refractive index
[2]	1.3937

CC(=O)OC(C)(C)C [1,1-dimethylethyl ethanoate]
[1]
Settings	mass density [kg/m3]	vapor or sublimation pressure [kPa]
298.15 K	860.53	–
307.53 K	–	8.99
311.79 K	–	10.99
315.64 K	–	13.09
319.82 K	–	15.73
324.28 K	–	19.04
325.46 K	–	20
328.94 K	–	23.09
332.36 K	–	26.48
336.12 K	–	30.67
339.58 K	–	35.02
342.46 K	–	39.04
345.75 K	–	43.98
348.84 K	–	49.09
352.07 K	–	54.94
354.95 K	–	60.02
357.17 K	–	65.33
359.63 K	–	70.88
361.83 K	–	76.15
363.85 K	–	81.26
366 K	–	87.01
367.99 K	–	92.58
369.46 K	–	96.91
370.68 K	–	100.64
370.86 K	–	100
372.26 K	–	105.59

Settings	refractive index
[2]	1.384

CC(C)(C)O [2-methylpropan-2-ol]
[1]
Settings	mass density [kg/m3]	vapor or sublimation pressure [kPa]
300.93 K	–	6.93
303.15 K	775.4	–
304.86 K	–	8.76
309.12 K	–	11.16
313.25 K	–	14.03
315.48 K	–	15.81
320.17 K	–	20
320.75 K	–	20.63
325.05 K	–	25.76
328.35 K	–	30.37
331.45 K	–	35.33
334.15 K	–	40.21
336.65 K	–	45.17
338.85 K	–	49.98
341.05 K	–	55.12
342.95 K	–	59.92
344.85 K	–	65.12
346.45 K	–	69.66
348.15 K	–	74.84
349.75 K	–	79.98
351.25 K	–	85.09
352.65 K	–	90.08
353.95 K	–	94.97
355.15 K	–	99.63
355.59 K	–	100
355.65 K	–	101.33
356.55 K	–	105.13
357.65 K	–	109.82
358.85 K	–	115.07
359.83 K	–	119.91

Settings	refractive index
[2]	1.3851
